From patent publication US8192962B2, “Processes for detecting toxic substances” (Daikin Industries, Ltd., priority 2001, dated 2012)

Tested on: Metabolism protein genes
Assay: DNA chip mRNA expression in yeast, metabolism protein genes (Table 7)
Format: cell-based, Saccharomyces cerevisiae S288C
Outline: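 In this screen, yeast in logarithmic growth are challenged for two hours with a toxic substance at a non-lethal inhibitory concentration. Their mRNA, converted to Cy3- or Cy5-labeled cDNA, hybridizes at 65° C. to a chip spanning every yeast gene, and expression is expressed as a ratio to untreated cells.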

In the case of `C=CC=O` [(14), acrolein], the “The level of expressed mRNA in the presence of chemical substance/The level of expressed mRNA in the absence of chemical substance” value (yeast gene YAL012W) is reported as 0.9, the “The level of expressed mRNA in the presence of chemical substance/The level of expressed mRNA in the absence of chemical substance” value (yeast gene YAL038W) is reported as 0.5 and the “level of expressed mRNA in the presence/in the absence of chemical substance” value (yeast gene YBR003W) is reported as 0.8. The “level of expressed mRNA in the presence/in the absence of chemical substance” value (yeast gene YBR011C) was 0.9, the “level of expressed mRNA in the presence/in the absence of chemical substance” value (yeast gene YBR020W) was 1.0 and the “The level of expressed mRNA in the presence of chemical substance/The level of expressed mRNA in the absence of chemical substance” value (yeast gene YBR023C) was 0.8. For the same compound, the “The level of expressed mRNA in the presence of chemical substance/The level of expressed mRNA in the absence of chemical substance” value (yeast gene YBR029C) was 0.9, the “The level of expressed mRNA in the presence of chemical substance/The level of expressed mRNA in the absence of chemical substance” value (yeast gene YBR068C) was 1.8 and the “The level of expressed mRNA in the presence of chemical substance/The level of expressed mRNA in the absence of chemical substance” value (yeast gene YBR183W) was 1.3. For the same compound, the “The level of expressed mRNA in the presence of chemical substance/The level of expressed mRNA in the absence of chemical substance” value (yeast gene YBR222C) was 0.5, the “The level of expressed mRNA in the presence of chemical substance/The level of expressed mRNA in the absence of chemical substance” value (yeast gene YBR256C) was 5.6 and the “The level of expressed mRNA in the presence of chemical substance/The level of expressed mRNA in the absence of chemical substance” value (yeast gene YCL009C) was 0.7. The “The level of expressed mRNA in the presence of chemical substance/The level of expressed mRNA in the absence of chemical substance” value (yeast gene YCL064C) was 0.8, the “level of expressed mRNA in the presence/in the absence of chemical substance” value (yeast gene YCR010C) was 1.2 and the “level of expressed mRNA in the presence/in the absence of chemical substance” value (yeast gene YCR034W) was 0.6. The “The level of expressed mRNA in the presence of chemical substance/The level of expressed mRNA in the absence of chemical substance” value (yeast gene YCR048W) was 0.9, the “The level of expressed mRNA in the presence of chemical substance/The level of expressed mRNA in the absence of chemical substance” value (yeast gene YCR098C) was 1.1 and the “The level of expressed mRNA in the presence of chemical substance/The level of expressed mRNA in the absence of chemical substance” value (yeast gene YDR019C) was 1.6. For the same compound, the “level of expressed mRNA in the presence/in the absence of chemical substance” value (yeast gene YDR050C) was 1.2, the “level of expressed mRNA in the presence/in the absence of chemical substance” value (yeast gene YDR073W) was 1.2 and the “level of expressed mRNA in the presence/in the absence of chemical substance” value (yeast gene YDR123C) was 0.7. The “level of expressed mRNA in the presence/in the absence of chemical substance” value (yeast gene YDR178W) was 1.5, the “level of expressed mRNA in the presence/in the absence of chemical substance” value (yeast gene YDR277C) was 1.3 and the “level of expressed mRNA in the presence/in the absence of chemical substance” value (yeast gene YDR284C) was 1.3. The “level of expressed mRNA in the presence/in the absence of chemical substance” value (yeast gene YDR345C) was 0.8, the “The level of expressed mRNA in the presence of chemical substance/The level of expressed mRNA in the absence of chemical substance” value (yeast gene YDR380W) was 0.6 and the “level of expressed mRNA in the presence/in the absence of chemical substance” value (yeast gene YDR400W) was 0.9. For the same compound, the “level of expressed mRNA in the presence/in the absence of chemical substance” value (yeast gene YDR408C) was 0.9, the “level of expressed mRNA in the presence/in the absence of chemical substance” value (yeast gene YDR483W) was 0.8 and the “The level of expressed mRNA in the presence of chemical substance/The level of expressed mRNA in the absence of chemical substance” value (yeast gene YDR497C) was 0.6. The “The level of expressed mRNA in the presence of chemical substance/The level of expressed mRNA in the absence of chemical substance” value (yeast gene YDR502C) was 0.8, the “The level of expressed mRNA in the presence of chemical substance/The level of expressed mRNA in the absence of chemical substance” value (yeast gene YDR516C) was 0.7 and the “level of expressed mRNA in the presence/in the absence of chemical substance” value (yeast gene YEL063C) was 0.8. The “level of expressed mRNA in the presence/in the absence of chemical substance” value (yeast gene YER015W) was 1.1, the “The level of expressed mRNA in the presence of chemical substance/The level of expressed mRNA in the absence of chemical substance” value (yeast gene YER026C) was 1.1 and the “The level of expressed mRNA in the presence of chemical substance/The level of expressed mRNA in the absence of chemical substance” value (yeast gene YER053C) was 1.3. For the same compound, the “The level of expressed mRNA in the presence of chemical substance/The level of expressed mRNA in the absence of chemical substance” value (yeast gene YER069W) was 1.3, the “level of expressed mRNA in the presence/in the absence of chemical substance” value (yeast gene YER081W) was 1.6 and the “The level of expressed mRNA in the presence of chemical substance/The level of expressed mRNA in the absence of chemical substance” value (yeast gene YER096W) was 3.1. For the same compound, the “level of expressed mRNA in the presence/in the absence of chemical substance” value (yeast gene YER120W) was 0.9, the “The level of expressed mRNA in the presence of chemical substance/The level of expressed mRNA in the absence of chemical substance” value (yeast gene YER178W) was 0.9 and the “level of expressed mRNA in the presence/in the absence of chemical substance” value (yeast gene YFL011W) was 0.8. The “The level of expressed mRNA in the presence of chemical substance/The level of expressed mRNA in the absence of chemical substance” value (yeast gene YFL014W) was 7.3, the “The level of expressed mRNA in the presence of chemical substance/The level of expressed mRNA in the absence of chemical substance” value (yeast gene YFL030W) was 0.8 and the “The level of expressed mRNA in the presence of chemical substance/The level of expressed mRNA in the absence of chemical substance” value (yeast gene YFL031W) was 0.4. For the same compound, the “The level of expressed mRNA in the presence of chemical substance/The level of expressed mRNA in the absence of chemical substance” value (yeast gene YFL056C) was 7.8, the “The level of expressed mRNA in the presence of chemical substance/The level of expressed mRNA in the absence of chemical substance” value (yeast gene YFL057C) was 23.4 and the “The level of expressed mRNA in the presence of chemical substance/The level of expressed mRNA in the absence of chemical substance” value (yeast gene YFR047C) was 1.9. For the same compound, the “level of expressed mRNA in the presence/in the absence of chemical substance” value (yeast gene YGL012W) was 0.8, the “The level of expressed mRNA in the presence of chemical substance/The level of expressed mRNA in the absence of chemical substance” value (yeast gene YGL022W) was 0.5 and the “level of expressed mRNA in the presence/in the absence of chemical substance” value (yeast gene YGL115W) was 1.2. For the same compound, the “level of expressed mRNA in the presence/in the absence of chemical substance” value (yeast gene YGL205W) was 1.0, the “The level of expressed mRNA in the presence of chemical substance/The level of expressed mRNA in the absence of chemical substance” value (yeast gene YGL209W) was 1.6 and the “The level of expressed mRNA in the presence of chemical substance/The level of expressed mRNA in the absence of chemical substance” value (yeast gene YGL248W) was 1.3. For the same compound, the “The level of expressed mRNA in the presence of chemical substance/The level of expressed mRNA in the absence of chemical substance” value (yeast gene YGR037C) was 1.5, the “The level of expressed mRNA in the presence of chemical substance/The level of expressed mRNA in the absence of chemical substance” value (yeast gene YGR055W) was 1.2 and the “level of expressed mRNA in the presence/in the absence of chemical substance” value (yeast gene YGR096W) was 1.2. For the same compound, the “level of expressed mRNA in the presence/in the absence of chemical substance” value (yeast gene YGR191W) was 0.7, the “The level of expressed mRNA in the presence of chemical substance/The level of expressed mRNA in the absence of chemical substance” value (yeast gene YGR194C) was 1.0 and the “level of expressed mRNA in the presence/in the absence of chemical substance” value (yeast gene YGR204W) was 0.5. For the same compound, the “The level of expressed mRNA in the presence of chemical substance/The level of expressed mRNA in the absence of chemical substance” value (yeast gene YGR256W) was 1.1, the “The level of expressed mRNA in the presence of chemical substance/The level of expressed mRNA in the absence of chemical substance” value (yeast gene YGR282C) was 1.0 and the “level of expressed mRNA in the presence/in the absence of chemical substance” value (yeast gene YGR288W) was 1.1. The “level of expressed mRNA in the presence/in the absence of chemical substance” value (yeast gene YHR025W) was 0.6, the “The level of expressed mRNA in the presence of chemical substance/The level of expressed mRNA in the absence of chemical substance” value (yeast gene YHR111W) was 1.7 and the “level of expressed mRNA in the presence/in the absence of chemical substance” value (yeast gene YHR123W) was 0.8. For the same compound, the “The level of expressed mRNA in the presence of chemical substance/The level of expressed mRNA in the absence of chemical substance” value (yeast gene YHR137W) was 0.8, the “The level of expressed mRNA in the presence of chemical substance/The level of expressed mRNA in the absence of chemical substance” value (yeast gene YHR174W) was 0.6 and the “The level of expressed mRNA in the presence of chemical substance/The level of expressed mRNA in the absence of chemical substance” value (yeast gene YHR176W) was 1.3. For the same compound, the “level of expressed mRNA in the presence/in the absence of chemical substance” value (yeast gene YHR210C) was 1.0, the “level of expressed mRNA in the presence/in the absence of chemical substance” value (yeast gene YIL006W) was 1.0 and the “The level of expressed mRNA in the presence of chemical substance/The level of expressed mRNA in the absence of chemical substance” value (yeast gene YIL045W) was 1.6. For the same compound, the “The level of expressed mRNA in the presence of chemical substance/The level of expressed mRNA in the absence of chemical substance” value (yeast gene YIL107C) was 1.6, the “The level of expressed mRNA in the presence of chemical substance/The level of expressed mRNA in the absence of chemical substance” value (yeast gene YIL154C) was 0.9 and the “The level of expressed mRNA in the presence of chemical substance/The level of expressed mRNA in the absence of chemical substance” value (yeast gene YIL155C) was 1.3. For the same compound, the “The level of expressed mRNA in the presence of chemical substance/The level of expressed mRNA in the absence of chemical substance” value (yeast gene YIL167W) was 1.4, the “The level of expressed mRNA in the presence of chemical substance/The level of expressed mRNA in the absence of chemical substance” value (yeast gene YIR034C) was 1.2 and the “The level of expressed mRNA in the presence of chemical substance/The level of expressed mRNA in the absence of chemical substance” value (yeast gene YIR036C) was 1.2. The “The level of expressed mRNA in the presence of chemical substance/The level of expressed mRNA in the absence of chemical substance” value (yeast gene YJL031C) was 3.0, the “The level of expressed mRNA in the presence of chemical substance/The level of expressed mRNA in the absence of chemical substance” value (yeast gene YJL068C) was 1.5 and the “The level of expressed mRNA in the presence of chemical substance/The level of expressed mRNA in the absence of chemical substance” value (yeast gene YJL088W) was 2.0. The “The level of expressed mRNA in the presence of chemical substance/The level of expressed mRNA in the absence of chemical substance” value (yeast gene YJL099W) was 1.8, the “level of expressed mRNA in the presence/in the absence of chemical substance” value (yeast gene YJL121C) was 0.9 and the “level of expressed mRNA in the presence/in the absence of chemical substance” value (yeast gene YJL167W) was 0.9. The “The level of expressed mRNA in the presence of chemical substance/The level of expressed mRNA in the absence of chemical substance” value (yeast gene YJL172W) was 0.9, the “level of expressed mRNA in the presence/in the absence of chemical substance” value (yeast gene YJL216C) was 1.1 and the “The level of expressed mRNA in the presence of chemical substance/The level of expressed mRNA in the absence of chemical substance” value (yeast gene YJL219W) was 1.1. For the same compound, the “level of expressed mRNA in the presence/in the absence of chemical substance” value (yeast gene YJR077C) was 0.7, the “The level of expressed mRNA in the presence of chemical substance/The level of expressed mRNA in the absence of chemical substance” value (yeast gene YJR137C) was 1.2 and the “level of expressed mRNA in the presence/in the absence of chemical substance” value (yeast gene YJR143C) was 0.6. For the same compound, the “The level of expressed mRNA in the presence of chemical substance/The level of expressed mRNA in the absence of chemical substance” value (yeast gene YJR148W) was 1.3, the “The level of expressed mRNA in the presence of chemical substance/The level of expressed mRNA in the absence of chemical substance” value (yeast gene YJR155W) was 9.4 and the “The level of expressed mRNA in the presence of chemical substance/The level of expressed mRNA in the absence of chemical substance” value (yeast gene YKL035W) was 0.6.
